pIC50: −log10 of the molar value. Blank lines part the entries; values can stand above or below the compound they belong to.
Assays:
[1] = system: bronchial and coronary dilation; details: in words; cited from earlier work
[2] = system: Type IV PDE isolated from bovine tracheal smooth muscle (PDE IV); assay: Type IV PDE activity (hydrolysis of [^3 H]-cyclic AMP); assay type: biochemical; details: cyclic AMP 0.2 mM, 2.5% dimethyl sulfoxide, * = disubstituted analog
From the text: In addition, the PDE IV inhibitory compounds of the present invention may be examined for their PDE IV inhibitory effects via the techniques set forth in the following examples, wherein the ability of the compounds to inhibit PDE IV isolated from bovine tracheal smooth muscle is set forth.
The Type IV PDE is isolated from bovine tracheal smooth muscle using a procedure similar to that previously described by Silver, P. J. et al., Eur. J. Pharmacol. 150:85,1988.(1). Briefly, smooth muscle from bovine trachea is minced and homogenized using a polytron in 10 volumes of an extraction buffer containing 10 mM Tris-acetate (pH 7.5), 2 mM magnesium chloride, 1 mM dithiothreitol and 2,000 units/ml of aprotinin. This and all subsequent procedures are performed at 0-4° C. The homogenate is sonicated and then centrifuged at 48,000×g for 30 minutes. The resulting supernatant is applied to a DEAE Trisacryl M column previously equilibrated with sodium acetate and dithiothreitol. After applications of the sample, the column is washed with sodium acetate/ dithiothreitol, after which the different forms of PDE are eluted from the column using a linear Tris-HCl/NaCl gradient. Fractions containing Type IV PDE are collected, dialyzed and concentrated to 14% of the original volume. The concentrated fractions are diluted to 50% with ethylene glycol and stored at -20° C.
Enzyme activity is assessed by measuring the hydrolysis of [^3 H]-cyclic AMP, as described by Thompson, W. J. et al., Adv. Cyclic Nucleotide Res. 10:69, 1979. The cyclic AMP concentration used in this assay is 0.2 mM, which approximates the Km value. Protein concentration is adjusted to ensure that no more than 15% of the available substrate is hydrolyzed during the incubation period.
All test compounds are dissolved in dimethyl sulfoxide (final concentration of 2.5%). This concentration of dimethyl sulfoxide inhibits enzyme activity by approximately 10%.

[3] = system: mast cells, basophils, monocytes and eosinophils; details: in-vitro, in words; cited from earlier work
[4] = system: neutrophils and eosinophils; details: in-vitro, in words; cited from earlier work
lymphocytes = details: in-vitro, in words; cited from earlier work
PDE IV = details: in words, background; cited from earlier work
[5] = in words; cited from earlier work
PDE III = details: in words, background; cited from earlier work

SMILES: Cc1nc2c([nH]1)c(=S)n(C)c(=O)n2C [1,3,8-trimethyl-6-thioxanthine]
bronchial and coronary dilator activity [1]: having bronchial and coronary dilator activity

SMILES: CCc1nc2c([nH]1)c(=S)n(C)c(=O)n2C [1,3-dimethyl-8-ethyl-6-thioxanthine]
bronchial and coronary dilator activity [1]: having bronchial and coronary dilator activity

SMILES: CCCn1c(=O)[nH]c(=S)c2[nH]c(CC)nc21 [3-propyl-8-ethyl-6-thioxanthine]
pIC50 [2]: 4.74

SMILES: CCCCOc1cc(CC2CNC(=O)N2)ccc1OC (stereo not shown) [Ro-201724]
inhibition of mediator synthesis/release [3]: shown to inhibit
inhibition of respiratory burst, chemotaxis and degranulation [4]: shown to inhibit
inhibition of mitogen-dependent growth and differentiation (lymphocytes): shown to inhibit

SMILES: COc1ccc(C2CNC(=O)C2)cc1OC1CCCC1 (stereo not shown) [Rolipram]
inhibition of mediator synthesis/release [3]: shown to inhibit
PDE IV inhibition (PDE IV): selectively inhibit the PDE IV enzyme
inhibition of respiratory burst, chemotaxis and degranulation [4]: shown to inhibit
inhibition of mitogen-dependent growth and differentiation (lymphocytes): shown to inhibit

SMILES: Cn1c(=O)c2[nH]cnc2n(C)c1=O [Theophylline]
therapeutic index [5]: narrow therapeutic index
PDE IV inhibition (PDE IV): inhibits both PDE III and PDE IV
PDE III inhibition (PDE III): inhibits both PDE III and PDE IV

Results, then the compound that gave them:

pIC50 [2]: 5.92
SMILES: CCn1c(=S)c2[nH]c(C(C)C)nc2n(CC)c1=O [1,3-diethyl-8-isopropyl-6-thioxanthine, 1,3-Diethyl-8-isopropyl-6-thioxanthine]

pIC50 [2]: 6.00
SMILES: CCn1c(=O)n(C)c(=S)c2[nH]c(C(C)C)nc21 [3-ethyl-1-methyl-8-isopropyl-6-thioxanthine]

pIC50 [2]: 5.34
SMILES: CCn1c(=O)[nH]c(=S)c2[nH]c(C(C)C)nc21 [3-ethyl-8-isopropyl-6-thioxanthine]

pIC50 [2]: 5.53
SMILES: CCCn1c(=S)c2[nH]c(C3CC3)nc2n(CCC)c1=O [8-Cyclopropyl-1,3-dipropyl-6-thioxanthine]

pIC50 [2]: 5.93
SMILES: CCC(C)Cn1c(=O)n(CC)c(=S)c2[nH]c(C3CC3)nc21 (stereo not shown) [8-Cyclopropyl-1-ethyl-3-(2-methyl-butyl)-6-thioxanthine]

pIC50 [2]: 5.42
SMILES: CCC(C)Cn1c(=O)[nH]c(=S)c2[nH]c(C3CC3)nc21 (stereo not shown) [8-cyclopropyl-3-(2-methyl-butyl)-6-thioxanthine]

pIC50 [2]: 5.35
SMILES: CCCn1c(=O)[nH]c(=S)c2[nH]c(C3CC3)nc21 [8-cyclopropyl-3-propyl-6-thioxanthine]

pIC50 [2]: 5.78
SMILES: CCCn1c(=S)c2[nH]c(C(C)C)nc2n(CCC)c1=O [8-isopropyl-1,3-dipropyl-6-thioxanthine, 1,3-Dipropyl-8-isopropyl-6-thioxanthine]

pIC50 [2]: 5.48
SMILES: CCCn1c(=O)[nH]c(=S)c2[nH]c(C(C)C)nc21 [8-isopropyl-3-propyl-6-thioxanthine]
